Assay results taken from patent US20230002383A1, “NOVEL FUNCTIONALIZED LACTAMS AS MODULATORS OF THE 5-HYDROXYTRYPTAMINE RECEPTOR 7 AND THEIR METHOD OF USE” (Temple University-Of The Commonwealth System of Higher …, priority 2019, published 2023).

Biological target: T1, 5-HT7 receptors (Homo sapiens, UniProt P34969)
Assay: Radiolabeled binding ([3H]LSD competition), membranes of cells expressing recombinant 5-HT7 receptors
Design: expressed in transfected cells
Details: [3H]LSD radioligand binding
Protocol: ^1Radiolabeled Binding (IC50 and K1)
A solution of the compound of the disclosure to be tested was prepared as a 1-mg/ml stock in Assay Buffer or DMSO according to its solubility. A similar stock of the reference compound chlorpromazine was also prepared as a positive control. Eleven dilutions (5×assay concentration) of the compound of the disclosure and chlorpromazine were prepared in the Assay Buffer by serial dilution to yield final corresponding assay concentrations ranging from 10 pM to 10 μM.
A stock concentration of 5 nM [^3H]LSD (lysergic acid diethyl amide) was prepared in 50 mM Tris-HCl, 10 mM MgCl2, 1 mM EDTA, pH 7.4 (Assay Buffer). Aliquots (50 μl) of radioligand were dispensed into the wells of a 96-well plate containing 100 μl of Assay Buffer. Duplicate 50-μl aliquots of the compound of the disclosure test and chlorpromazine positive control reference compound serial dilutions were added.
Membrane fractions of cells expressing recombinant 5-HT7 receptors (50 μL) were dispensed into each well. The membranes were prepared from stably transfected cell lines expressing 5-HT7 receptors cultured on 10-cm plates by harvesting PBS-rinsed monolayers, resuspending and lysing in chilled, hypotonic 50 mM Tris-HCl, pH 7.4, centrifuging at 20,000×g, decanting the supernatant and storing at −80° C.; the membrane preparations were resuspended in 3 ml of chilled Assay Buffer and homogenized by several passages through a 26 gauge needle before using in the assay.
The 250-μl reactions were incubated at room temperature for 1.5 hours, then harvested by rapid filtration onto 0.3% polyethyleneimine-treated, 96-well filter mats using a 96-well Filtermate harvester. Four rapid 500-μl washes were performed with chilled Assay Buffer to reduce non-specific binding. The filter mats were dried, then scintillant is added to the filters and the radioactivity retained on the filters was counted in a Microbeta scintillation counter.
Raw data (dpm) representing total radioligand binding (i.e., specific+non-specific binding) was plotted as a function of the logarithm of the molar concentration of the competitor (i.e., test or reference compound). Non-linear regression of the normalized (i.e., percent radioligand binding compared to that observed in the absence of test or reference compound) raw data was performed in Prism 4.0 (GraphPad Software) using the built-in three parameter logistic model describing ligand competition binding to radioligand-labeled sites:
y=bottom+[(top−bottom)/(1+10×−log IC50)]
where bottom equals the residual radioligand binding measured in the presence of 10 μM reference compound (i.e., non-specific binding) and top equals the total radioligand binding observed in the absence of competitor. The log IC50 (i.e., the log of the ligand concentration that reduces radioligand binding by 50%) was thus estimated from the data and used to obtain the Ki by applying the Cheng-Prusoff approximation:
where [ligand] equals the assay radioligand concentration and KD equals the affinity constant of the radioligand for the target receptor. Functional Data (Kb)

T1 sequence (P34969 whole entry): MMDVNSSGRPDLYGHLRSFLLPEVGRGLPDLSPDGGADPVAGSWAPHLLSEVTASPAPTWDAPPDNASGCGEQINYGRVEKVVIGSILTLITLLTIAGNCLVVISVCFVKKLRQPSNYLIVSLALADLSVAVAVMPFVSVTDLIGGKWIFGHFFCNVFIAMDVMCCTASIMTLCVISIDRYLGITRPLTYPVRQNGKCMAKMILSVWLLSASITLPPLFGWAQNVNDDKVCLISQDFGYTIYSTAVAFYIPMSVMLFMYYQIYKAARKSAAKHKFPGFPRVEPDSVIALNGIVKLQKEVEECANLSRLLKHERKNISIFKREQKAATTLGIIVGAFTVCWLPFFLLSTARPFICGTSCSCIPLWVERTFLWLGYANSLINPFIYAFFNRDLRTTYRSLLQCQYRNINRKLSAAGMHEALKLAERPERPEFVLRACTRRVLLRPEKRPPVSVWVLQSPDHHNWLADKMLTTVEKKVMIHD

Row | SMILES | Ki
1 | CS(=O)(=O)NCC(=O)N1CCC2(CC1)C[C@H](CCN1CCN(c3ccc(F)cc3)CC1)NC2=O [Compound A10] | 50 to 200 nM
2 | CC(C)(N)C(=O)N1CCC2(CC1)C[C@H](CCN1CCN(c3ccc(F)cc3)CC1)NC2=O [Compound A13] | 200 to 500 nM
3 | CC(=O)NC(C)(C)C(=O)N1CCC2(CC1)C[C@H](CCN1CCN(c3ccc(F)cc3)CC1)NC2=O [Compound A17] | 200 to 500 nM
4 | CC(C)(C)C(=O)NC(C)(C)C(=O)N1CCC2(CC1)C[C@H](CCN1CCN(c3ccc(F)cc3)CC1)NC2=O [Compound A21] | 50 to 200 nM
5 | CC(C)(C)C(=O)NCC(=O)N1CCC2(CC1)C[C@H](CCN1CCN(c3ccc(F)cc3)CC1)NC2=O [Compound A25] | 200 to 500 nM
6 | CN(C)CC(=O)N1CCC2(CC1)C[C@H](CCN1CCN(c3ccc(F)cc3)CC1)NC2=O [Compound A29] | ≥ 500 nM
7 | O=C(CN1CCOCC1)N1CCC2(CC1)C[C@H](CCN1CCN(c3ccc(F)cc3)CC1)NC2=O [Compound A33] | ≥ 500 nM

The remaining lines, values ahead:

Row | Ki | SMILES
8 | 50 to 200 nM | CS(=O)(=O)NCC(=O)N1CCC2(CC1)C[C@H](CCN1CCN(c3cccc(Cl)c3)CC1)NC2=O [Compound A9]
9 | 200 to 500 nM | CC(C)(N)C(=O)N1CCC2(CC1)C[C@H](CCN1CCN(c3cccc(Cl)c3)CC1)NC2=O [Compound A14]
10 | 200 to 500 nM | CC(=O)NC(C)(C)C(=O)N1CCC2(CC1)C[C@H](CCN1CCN(c3cccc(Cl)c3)CC1)NC2=O [Compound A18]
11 | 50 to 200 nM | CC(C)(C)C(=O)NC(C)(C)C(=O)N1CCC2(CC1)C[C@H](CCN1CCN(c3cccc(Cl)c3)CC1)NC2=O [Compound A22]
12 | 200 to 500 nM | CC(C)(C)C(=O)NCC(=O)N1CCC2(CC1)C[C@H](CCN1CCN(c3cccc(Cl)c3)CC1)NC2=O [Compound A26]
13 | 200 to 500 nM | CN(C)CC(=O)N1CCC2(CC1)C[C@H](CCN1CCN(c3cccc(Cl)c3)CC1)NC2=O [Compound A30]
14 | 200 to 500 nM | O=C(CN1CCOCC1)N1CCC2(CC1)C[C@H](CCN1CCN(c3cccc(Cl)c3)CC1)NC2=O [Compound A34]
15 | 50 to 200 nM | CCC1(CC)C[C@H](CCN2CCN(c3ccccc3)CC2)N(C)C1=O [Compound A85]
16 | < 50 nM | CCC1(CC)C[C@H](CCN2CCN(c3cccc(Cl)c3)CC2)N(C)C1=O [Compound A86]
17 | < 50 nM | CCC1(CC)C[C@H](CCN2CCN(c3ccc(F)cc3)CC2)N(C)C1=O [Compound A87]

Same assay, conditions: read-out: 5-HT7 % Inhib. @ 0.1 uM (Ki column)

Row | inhibition at 0.1 µM | SMILES
18 | 62% | CC(=O)N1CCC2(CC1)C[C@H](CCN1CCN(c3ccc(F)cc3)C[C@@H]1C)NC2=O [Compound A107]
19 | 63% | CC(=O)N1CCC2(CC1)C[C@H](CCN1CCN(c3ccc(F)cc3)C[C@H]1C)NC2=O [Compound A108]
20 | 40% | CC(=O)N1CCC2(CC1)C[C@H](CCN1CCN(c3ccc(F)cc3)[C@@H](C)C1)NC2=O [Compound A109]
21 | 64% | CC(=O)N[C@@H](C)C(=O)N1CCC2(CC1)C[C@H](CCN1CCN(c3ccc(F)cc3)C[C@H]1C)NC2=O [Compound A123]

Same assay, conditions: read-out: 5-HT7 % Inhib. @ 1 uM (Ki column)

Row | inhibition at 1 µM | SMILES
22 | 45% | CC(=O)N1CCC2(CC1)C[C@H](CCN1CCN(c3ccc(F)cc3)[C@H](C)C1)NC2=O [Compound A110]

Biological target: T1, 5-HT7 receptors
Assay: HitHunter cAMP enzyme fragment complementation assay, antagonist activity in presence of 5-HT (Kb)
Type: cell-based
Design: expressed in transfected cells; kept under G418 selection
Details: antagonist mode vs EC70 5-HT
Protocol: Functional efficacy of the compounds of the disclosure on 5-HT7 serotonin receptors were measured in a cell based cAMP enzyme fragment complementation assay using the HitHunter cAMP assay (DiscoveRx). Cells stably expressing human 5HT7 receptors were plated in 96-well plates at 4000 cells/well, 16-20 hours prior to assay in growth media (Ultraculture medium, 2 mM GlutaMax and G418 1 mg/mL. Serial dilutions of the agonist, 5-hydroxytryptamine (5-HT), were prepared in a final concentration range of 10 μM to 10 nM. Compounds of the disclosure were prepared in 3-fold serial dilutions to obtain a final concentration range of 10 μM to 0.1 nM. Compounds of the disclosure are tested for agonist activity in the absence of 5-HT and antagonist activity in the presence of 5-HT. For the cAMP assay, the protocol was followed according to the instructions provided by the supplier. Briefly, cells were incubated with a compound of the disclosure for 30 minutes at 37° C. prior to addition of EC70 concentration of 5-HT. After an additional 30 minutes, cAMP antibody/cell lysis solution was added (20 μL/well) and incubated for 60 minutes at room temperature, cAMP XS+EA reagent is added (20 μL/well) and incubated for 2 hours at room temperature. Luminescence was read on the Envision Multilabel plate reader.

Row | SMILES | Kb
23 | NCC(=O)N1CCC2(CC1)C[C@H](CCN1CCN(c3ccc(F)cc3)CC1)NC2=O [Compound A2] | 10 to 100 nM
24 | CC(=O)NCC(=O)N1CCC2(CC1)C[C@H](CCN1CCN(c3ccc(F)cc3)CC1)NC2=O [Compound A6] | < 10 nM
25 | CS(=O)(=O)NCC(=O)N1CCC2(CC1)C[C@H](CCN1CCN(c3ccc(F)cc3)CC1)NC2=O [Compound A10] | 10 to 100 nM
26 | CC(=O)N[C@@H](C)C(=O)N1CCC2(CC1)C[C@H](CCN1CCN(c3ccc(F)cc3)CC1)NC2=O [Compound A39] | < 10 nM
27 | O=C(c1cccnc1)N1CCC2(CC1)C[C@H](CCN1CCN(c3ccc(F)cc3)CC1)NC2=O [Compound A81] | 100 to 500 nM
28 | O=C(Cc1nnn[nH]1)N1CCC2(CC1)C[C@H](CCN1CCN(c3ccc(F)cc3)CC1)NC2=O [Compound A82] | ≥ 500 nM
29 | O=C(CN1CCOC1=O)N1CCC2(CC1)C[C@H](CCN1CCN(c3ccc(F)cc3)CC1)NC2=O [Compound A83] | 100 to 500 nM
30 | O=C(c1cccnn1)N1CCC2(CC1)C[C@H](CCN1CCN(c3ccc(F)cc3)CC1)NC2=O [Compound A84] | 100 to 500 nM
31 | CC(F)(F)C(=O)N1CCC2(CC1)C[C@H](CCN1CCN(c3ccc(F)cc3)CC1)NC2=O [Compound A93] | < 10 nM
32 | O=C(CC(F)(F)F)N1CCC2(CC1)C[C@H](CCN1CCN(c3ccc(F)cc3)CC1)NC2=O [Compound A95] | 10 to 100 nM
33 | CC(=O)N1CCC2(CC1)C[C@H](CCN1CCN(c3ccc(F)cc3)C[C@@H]1C)NC2=O [Compound A107] | < 10 nM
34 | CC(=O)N1CCC2(CC1)C[C@H](CCN1CCN(c3ccc(F)cc3)C[C@H]1C)NC2=O [Compound A108] | < 10 nM
35 | CC(=O)N1CCC2(CC1)C[C@H](CCN1CCN(c3ccc(F)cc3)[C@@H](C)C1)NC2=O [Compound A109] | 10 to 100 nM
36 | CC(=O)N[C@@H](C)C(=O)N1CCC2(CC1)C[C@H](CCN1CCN(c3ccc(F)cc3)C[C@H]1C)NC2=O [Compound A123] | < 10 nM
37 | CC[C@H](NC(C)=O)C(=O)N1CCC2(CC1)C[C@H](CCN1CCN(c3ccc(F)cc3)CC1)NC2=O [Compound A183] | < 10 nM
38 | CC(=O)N[C@H](C(=O)N1CCC2(CC1)C[C@H](CCN1CCN(c3ccc(F)cc3)CC1)NC2=O)C(C)C [Compound A184] | < 10 nM

Results, then the compound that gave them:

Row | Kb | SMILES
39 | < 10 nM | NCC(=O)N1CCC2(CC1)C[C@H](CCN1CCN(c3cccc(Cl)c3)CC1)NC2=O [Compound A1]
40 | < 10 nM | CC(=O)NCC(=O)N1CCC2(CC1)C[C@H](CCN1CCN(c3cccc(Cl)c3)CC1)NC2=O [Compound A5]
41 | 10 to 100 nM | CS(=O)(=O)NCC(=O)N1CCC2(CC1)C[C@H](CCN1CCN(c3cccc(Cl)c3)CC1)NC2=O [Compound A9]
42 | < 10 nM | CC(=O)N[C@@H](C)C(=O)N1CCC2(CC1)C[C@H](CCN1CCN(c3cccc(Cl)c3)CC1)NC2=O [Compound A40]
43 | 10 to 100 nM | CCC1(CC)C[C@H](CCN2CCN(c3ccccc3)CC2)N(C)C1=O [Compound A85]
44 | < 10 nM | CCC1(CC)C[C@H](CCN2CCN(c3cccc(Cl)c3)CC2)N(C)C1=O [Compound A86]
45 | 10 to 100 nM | CCC1(CC)C[C@H](CCN2CCN(c3ccc(F)cc3)CC2)N(C)C1=O [Compound A87]
46 | 10 to 100 nM | CC(=O)N1CCC2(CC1)C[C@H](CCN1CCN(c3ccc(F)cc3)CC1)N(C)C2=O [Compound A88]
47 | 10 to 100 nM | CC(=O)N1CCC2(CC1)C[C@H](CCN1CCN(c3cccc(Cl)c3)CC1)N(C)C2=O [Compound A89]
48 | < 10 nM | CN1C(=O)C2(CCN(C(=O)C(C)(C)C)CC2)C[C@@H]1CCN1CCN(c2ccc(F)cc2)CC1 [Compound A90]
49 | 10 to 100 nM | CN1C(=O)C2(CCN(C(=O)C(C)(C)C)CC2)C[C@@H]1CCN1CCN(c2cccc(Cl)c2)CC1 [Compound A91]
50 | < 10 nM | CCC(=O)N1CCC2(CC1)C[C@H](CCN1CCN(c3ccc(F)cc3)CC1)N(C)C2=O [Compound A97]
51 | 10 to 100 nM | CC(C)C(=O)N1CCC2(CC1)C[C@H](CCN1CCN(c3ccc(F)cc3)CC1)N(C)C2=O [Compound A98]
52 | < 10 nM | CN1C(=O)C2(CCN(C(=O)C3CC3)CC2)C[C@@H]1CCN1CCN(c2ccc(F)cc2)CC1 [Compound A99]
53 | < 10 nM | CN1C(=O)C2(CCN(C(=O)C(C)(F)F)CC2)C[C@@H]1CCN1CCN(c2ccc(F)cc2)CC1 [Compound A103]
54 | 10 to 100 nM | COC(=O)N1CCC2(CC1)C[C@H](CCN1CCN(c3ccc(F)cc3)CC1)N(C)C2=O [Compound A124]
